Test results as given in US20160311817A1, “HETEROARYL SULTAM DERIVATIVES AS RORc MODULATORS” (Genentech, Inc., priority 2014, published 2016).

What follows are molecules tested against T1, RORc ligand binding domain (Homo sapiens, UniProt P51449) (assay: In Vitro RORc Ligand Binding Assay). Settings: radioligand 25-[3H]hydroxycholesterol 6 nM; 0.6 ug/mL RORc receptor; 3 h at 25° C.
T1 construct: host or cells: E. coli
T1 sequence (P51449 269-508 limits assumed): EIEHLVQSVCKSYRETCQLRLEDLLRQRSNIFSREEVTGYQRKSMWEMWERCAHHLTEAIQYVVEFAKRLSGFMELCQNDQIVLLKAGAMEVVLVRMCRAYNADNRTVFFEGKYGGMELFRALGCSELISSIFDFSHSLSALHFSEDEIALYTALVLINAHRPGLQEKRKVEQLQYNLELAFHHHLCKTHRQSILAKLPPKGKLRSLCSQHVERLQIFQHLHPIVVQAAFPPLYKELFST
Method: In Vitro RORc Ligand Binding Assay
This assay was used to determine a compound's potency in inhibiting activity of RORc by determining, Kiapp, IC50, or percent inhibition values.
On day of the assay, 100 uL of 0.05% CHAPS (in deionized H2O) was added to all wells of the GFB Unifilter plate and allowed soak for 1 h. A wash buffer of 50 mM HEPES (pH 7.4), 150 mM NaCl, and 5 mM MgCl2 was prepared to wash the filter plate. To prepare an assay buffer, BSA was added to the wash buffer to reach 0.01% and DTT was added to reach 1 mM.
For IC50 mode, 10 mM compound stocks were serially diluted in DMSO with DMSO to give 20× required final concentration in DMSO (15 uL compound+30 uL DMSO). The 20× compound stocks were diluted in DMSO with Assay Buffer 4-fold to reach 5× the final test concentration in 25% DMSO (10 uL compound+30 uL Assay Buffer). Solutions were mixed by aspiration several times with a pipette set on 50 uL volume. For the assay, 10 uL of 5× compound stock solutions in 25% DMSO were added to the assay plate in duplicate.
For two point screening, 10 mM stock compound solutions were diluted in DMSO to obtain 200 uM (20× the high test concentration) and then diluted 10-fold further to reach 20 uM (20× the low test concentration). The 20× stocks were diluted 4-fold with Assay Buffer (10 uL compound+30 uL Assay Buffer) to reach 5× the test concentrations (50 uM and 5 uM) and 10 uL were added to two assay plates for the duplicate wells. With each concentration tested on 2 plates, each set of 80 compounds used 4 assay plates (1 uM and 10 uM, with n=2).
25-hydroxycholesterol (1 uM) was used to determine the level of NSB signal is prepared in DMSO as for compounds above, then diluted in Assay Buffer to give a final concentration of 5 uM. For 25-hydroxycholesterol in 25% DMSO/75% Assay Buffer; 10 uL per well was used for NSB samples. Wells for Total Binding and No Receptor sample determination contained 10 uL of 25% DMSO/75% Assay Buffer per well.
25-[^3H]hydroxycholesterol was dilute in Assay Buffer to obtain 15 nM and vortex to mix. Add 20 uL to all wells to reach 6 nM final in the assay.
Stock receptor solution was diluted in assay buffer to obtain 1.5 ug/mL in Assay Buffer. 20 uL was added to all wells. For No R samples, 20 uL Assay Buffer was substituted for receptor solution.
Assay plates were 96-well polypropylene V-bottom plates. 10 uL of 5× compound in 25% DMSO/75% Assay Buffer was added to Test wells. 10 uL of 25% DMSO/75% Assay Buffer was added to Total Binding or No Receptor wells. 10 uL of 5 uM 25-hydroxycholesterol in 25% DMSO/75% Assay Buffer was added to NSB wells. 20 uL of 15 nM 25-[^3H]hydroxycholesterol prepared in Assay Buffer was added to all wells. 20 uL of 1.5 ug/mL RORc receptor was added to wells (or […] Assay Buffer to No R wells). Following addition to the wells, the plates were incubated 3 h at 25° C.
Using a Packard Filtermate Harvester, the filter plate were washed 4 times following transfer of the incubated samples. Plates were dry-filtered completely (2 h at 50° C. or overnight at room temperature). 50 uL Microscint 0 was added to all wells and read on Topcount protocol Inverted.
Final concentrations were as follows: 50 mM HEPES buffer (pH 7.4); 150 mM NaCl; 1 mM DTT; 5 mM MgCl2, 0.01% BSA; 5% DMSO; 0.6 ug/mL RORc receptor; 6 nM 25-[^3H]hydroxycholesterol. For NSB wells, 1 uM 25-hydroxycholesterol was also present.

Row | IC50 | SMILES
1 | 43 nM | CC1CCC(C2CCCCC2)S(=O)(=O)N1Cc1cc(F)c(N2CC3C(C2)C3n2cnnc2)cc1F (single isomer, unassigned) [Compound 1, 3-[4-(6-Cyclohexyl-3-methyl-1,1-dioxo-[1,2]thiazinan-2-ylmethyl)-2,5-difluoro-phenyl]-6-[1,2,4]triazol-4-yl-3-aza-bicyclo [3.1.0]hexane]
2 | 70 nM | CC1CCC(C2CCCCC2)S(=O)(=O)N1Cc1cc(F)c(N2CC3C(C2)C3n2cnnc2)cc1F (single isomer, unassigned) [Compound 2, 3-[4-(6-Cyclohexyl-3-methyl-1,1-dioxo-[1,2]thiazinan-2-ylmethyl)-2,5-difluoro-phenyl]-6-[1,2,4]triazol-4-yl-3-aza-bicyclo [3.1.0]hexane]
3 | 74 nM | CC1CC[C@H](C)N(Cc2cc(F)c(N3C[C@@H]4C(n5cnnc5)[C@@H]4C3)cc2F)S1(=O)=O (single isomer, unassigned) [Compound 5]
4 | 583 nM | CC1CC[C@H](C)N(Cc2cc(F)c(N3C[C@@H]4C(n5cnnc5)[C@@H]4C3)cc2F)S1(=O)=O (single isomer, unassigned) [Compound 6]
5 | 18 nM | CC(=O)N1CCN(c2ccc(CN3[C@@H](C)CCC(c4cccs4)S3(=O)=O)c(F)c2)CC1 (single isomer, unassigned) [Compound 7, 1-{4-[3-Fluoro-4-(3-methyl-1,1-dioxo-6-thiophen-2-yl-[1,2]thiazinan-2-ylmethyl)-phenyl]-piperazin-1-yl}-ethanone]
6 | 1000 nM | CC(=O)N1CCN(c2ccc(CN3[C@@H](C)CCC(c4ccncc4)S3(=O)=O)c(F)c2)CC1 (single isomer, unassigned) [Compound 8, 1-{4-[3-Fluoro-4-(3-methyl-1,1-dioxo-6-pyridin-4-yl-[1,2]thiazinan-2-ylmethyl)-phenyl]-piperazin-1-yl}-ethanone]
7 | 792 nM | CC(=O)N1CCN(c2ccc(CN3[C@@H](C)CCC(c4ncccn4)S3(=O)=O)c(F)c2)CC1 (single isomer, unassigned) [Compound 9, 1-{4-[3-Fluoro-4-(3-methyl-1,1-dioxo-6-pyrimidin-2-yl-[1,2]thiazinan-2-ylmethyl)-phenyl]-piperazin-1-yl}-ethanone]
8 | 1100 nM | CC(=O)N1CCN(c2ccc(CN3[C@@H](C)CCC(c4ncccn4)S3(=O)=O)c(F)c2)CC1 (single isomer, unassigned) [Compound 10, 1-{4-[3-Fluoro-4-(3-methyl-1,1-dioxo-6-pyrimidin-2-yl-[1,2]thiazinan-2-ylmethyl)-phenyl]-piperazin-1-yl}-ethanone]
9 | 2200 nM | CC(=O)N1CCN(c2ccc(CN3[C@@H](C)CCC(c4ccncc4)S3(=O)=O)c(F)c2)CC1 (single isomer, unassigned) [Compound 11, 1-{4-[3-Fluoro-4-(3-methyl-1,1-dioxo-6-pyridin-4-yl-[1,2]thiazinan-2-ylmethyl)-phenyl]-piperazin-1-yl}-ethanone]
10 | 36 nM | CC(=O)N1CCN(c2ccc(CN3[C@@H](C)CCC(c4ccsc4)S3(=O)=O)c(F)c2)CC1 (single isomer, unassigned) [Compound 12, 1-{4-[3-Fluoro-4-(3-methyl-1,1-dioxo-6-thiophen-3-yl-[1,2]thiazinan-2-ylmethyl)-phenyl]-piperazin-1-yl}-ethanone]
11 | 123 nM | CC(=O)N1CCN(c2ccc(CN3[C@@H](C)CCC(c4ccsc4)S3(=O)=O)c(F)c2)CC1 (single isomer, unassigned) [Compound 13, 1-{4-[3-Fluoro-4-(3-methyl-1,1-dioxo-6-thiophen-3-yl-[1,2]thiazinan-2-ylmethyl)-phenyl]-piperazin-1-yl}-ethanone]
12 | 870 nM | CC(=O)N1CCN(c2ccc(CN3[C@@H](C)CCC(c4cccnc4)S3(=O)=O)c(F)c2)CC1 (single isomer, unassigned) [Compound 14, 1-{4-[3-Fluoro-4-(3-methyl-1,1-dioxo-6-pyridin-3-yl-[1,2]thiazinan-2-ylmethyl)-phenyl]-piperazin-1-yl}-ethanone]
13 | 4200 nM | CC(=O)N1CCN(c2ccc(CN3[C@@H](C)CCC(c4cccnc4)S3(=O)=O)c(F)c2)CC1 (single isomer, unassigned) [Compound 15, 1-{4-[3-Fluoro-4-(3-methyl-1,1-dioxo-6-pyridin-3-yl-[1,2]thiazinan-2-ylmethyl)-phenyl]-piperazin-1-yl}-ethanone]
14 | 292 nM | CC(=O)N1CCN(c2ccc(CN3[C@@H](C)CCC(c4ccccn4)S3(=O)=O)c(F)c2)CC1 (single isomer, unassigned) [Compound 16, 1-{4-[3-Fluoro-4-(3-methyl-1,1-dioxo-6-pyridin-2-yl-[1,2]thiazinan-2-ylmethyl)-phenyl]-piperazin-1-yl}-ethanone]
15 | 825 nM | CC(=O)N1CCN(c2ccc(CN3[C@@H](C)CCC(c4ccccn4)S3(=O)=O)c(F)c2)CC1 (single isomer, unassigned) [Compound 17]
16 | 601 nM | C[C@H]1CCCS(=O)(=O)N1Cc1cc(F)c(N2C[C@@H]3C(n4cnnc4)[C@@H]3C2)cc1F (stereo partly drawn) [Compound 22, (1S,5R,6S)-3-[2,5-Difluoro-4-((S)-3-methyl-1,1-dioxo-[1,2]thiazinan-2-ylmethyl)-phenyl]-6-[1,2,4]triazol-4-yl-3-aza-bicyclo [3.1.0]hexane]
